Patent publication US6251950A, “Aliphatic propargylamines as cellular rescue agents” (University of Saskatchewan, priority 1998, dated 2001)

Tested on: pyramidal neurons in the hippocampus (CA1 neurons)
Experiment: Hypoxia/ischaemia model, CA1 neuron survival
Type: in vivo, rat
Settings: Rattus norvegicus, Neuron, sc; 0.1 μmol/kg, s.c.; vehicle = 100%; ± sem (n = 6-10); *P < 0.05, **P < 0.01; read-out: Percentage survival of CA1 neurones, of vehicle treated controls (Table 4)
Source text: This model produces selective, unilateral lesioning of the pyramidal neurons in the hippocampus which involves neuronal apoptosis.
Values are the mean survival of CA1 neurons expressed as a percentage of
vehicle treated controls (vehicle = 100%) ± sem (n = 6 - 10).

Row | Compound | response vs control in vivo at 0.1 µmol/kg
1 | C#CCN(C)CCC [Example 1PrMP, N-(1-propyl)-N-methylpropargylamine] | 127 ± 31%
2 | C#CCNCCC.Cl [Example 1PrPA, N-1-Propylpropargylamine hydrochloride] | 174 ± 29%
3 | C#CCN(C)C(C)C [Example 2PrMP, N-(2-propyl)-N-methylpropargylamine] | 255 ± 43%
4 | C#CCNC(C)C.Cl [Example 2PrPA, N-2-Propylpropargylamine hydrochloride] | 175 ± 20%
5 | C#CCN[C@H](C)CC.Cl [Example R-2BuPA, (R)-N-2-Butylpropargylamine hydrochloride] | 263 ± 37%

Same assay, conditions: s.c.

Row | Compound | activity in the hypoxia/ischaemia model
6 | C#CCN(C)CCC [Example 1PrMP, N-(1-propyl)-N-methylpropargylamine] | inactive
7 | C#CCNCCC.Cl [Example 1PrPA, N-1-Propylpropargylamine hydrochloride] | active
8 | C#CCN(C)C(C)C [Example 2PrMP, N-(2-propyl)-N-methylpropargylamine] | slightly lower than those of the optimum branched chain compounds
9 | C#CCNC(C)C.Cl [Example 2PrPA, N-2-Propylpropargylamine hydrochloride] | slightly lower than those of the optimum branched chain compounds

Molecular target: T1, rat liver mitochondrial monoamine oxidase B (Rattus norvegicus, UniProt P19643)
T1 sequence (P19643 1-520): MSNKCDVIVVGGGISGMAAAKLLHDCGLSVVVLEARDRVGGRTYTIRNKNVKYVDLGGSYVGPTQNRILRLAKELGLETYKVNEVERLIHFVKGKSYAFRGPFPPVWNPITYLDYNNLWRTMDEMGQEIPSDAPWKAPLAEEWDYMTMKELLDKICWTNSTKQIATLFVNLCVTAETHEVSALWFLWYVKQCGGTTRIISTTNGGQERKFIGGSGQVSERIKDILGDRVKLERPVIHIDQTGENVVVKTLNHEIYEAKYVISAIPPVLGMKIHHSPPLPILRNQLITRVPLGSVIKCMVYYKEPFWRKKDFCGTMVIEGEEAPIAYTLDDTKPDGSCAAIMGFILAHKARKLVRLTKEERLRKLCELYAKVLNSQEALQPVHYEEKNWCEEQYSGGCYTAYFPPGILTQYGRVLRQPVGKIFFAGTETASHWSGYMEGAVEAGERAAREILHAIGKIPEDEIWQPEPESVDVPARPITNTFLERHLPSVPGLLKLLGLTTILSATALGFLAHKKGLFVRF
Experiment: biochemical
Type: biochemical
Settings: in vitro
Experimental: Enzyme activity was assessed using a radiometric method as previously described (Yu et al, 1992).

Row | Compound | MAO-B inhibitory activity
10 | C#CCNC(C)CC (stereo not drawn) [Example 2BuPA, N-(2-butyl)-propargylamine] | substantially reduced in comparison to those of the N-methyl compounds
11 | C#CCNC(C)CCCCC (stereo not drawn) [Example 2HPA, N-(2-heptyl)-propargylamine] | substantially reduced in comparison to those of the N-methyl compounds
12 | C#CCNC(C)CCCC (stereo not drawn) [Example 2HxPA, N-(2-hexyl)-propargylamines] | substantially reduced in comparison to those of the N-methyl compounds

Same assay, conditions: in vitro, relative to most effective inhibitor in group

Row | Compound | Comparison to most effective MAO-B inhibitor in group
13 | C#CCN[C@H](C)CC.Cl [Example R-2BuPA, (R)-N-2-Butylpropargylamine hydrochloride] | 1.4%
14 | C#CCN(C)[C@H](C)CCCC [Example R-2HxMP, N-(2-hexyl)-N-methyl-propargylamine] | 100%
15 | C#CCN[C@H](C)CCCC.Cl [Example R-2HxPA, (R)-N-2-Hexylpropargylamine hydrochloride] | 0.8%
16 | C#CCN[C@@H](C)CC [Example S-2BuPA, (S)-N-(2-butyl)-propargylamine] | 0.2%
17 | C#CCN(C)[C@@H](C)CCCC [Example S-2HxMP, N-(2-hexyl)-N-methyl-propargylamine] | 4.3%

Same assay, conditions: substrate PE (β-phenylethylamine) 1.9 × 10^-5 M; average of at least 2 independent triplicate experiments

Row | Compound | IC50
18 | C#CCN[C@H](C)CC.Cl [Example R-2BuPA, (R)-N-2-Butylpropargylamine hydrochloride] | 70 µM
19 | C#CCN(C)[C@H](C)CCCC [Example R-2HxMP, N-(2-hexyl)-N-methyl-propargylamine] | 0.03 µM
20 | C#CCN[C@H](C)CCCC.Cl [Example R-2HxPA, (R)-N-2-Hexylpropargylamine hydrochloride] | 4 µM
21 | C#CCN[C@@H](C)CC [Example S-2BuPA, (S)-N-(2-butyl)-propargylamine] | 500 µM
22 | C#CCN(C)[C@@H](C)CCCC [Example S-2HxMP, N-(2-hexyl)-N-methyl-propargylamine] | 0.7 µM

Tested on: damaged neurons
Experiment: not given
Settings: cited from earlier work

Row | Compound | anti-apoptotic / neurorescue activity
23 | C#CCNC(C)Cc1ccccc1 (stereo not drawn) [Desmethyldeprenyl] | active as an anti-apoptotic drug

Same assay, conditions: pretreatment with P450 inhibitor; cited from earlier work

Row | Compound | effect on P450-dependent neurorescue properties of deprenyl
24 | CCCC(C(=O)OCCN(CC)CC)(c1ccccc1)c1ccccc1 [proadifen] | eliminates the neurorescue properties of deprenyl
